Source: paper PMC6325219, “Preclinical Characterization of NVR 3-778, a First-in-Class Capsid Assembly Modulator against Hepatitis B Virus” (Antimicrobial Agents and Chemotherapy, 2018)
Marks after values point to notes of the source that are not given here.

How the values were obtained:
β-actin mRNA = assay: Host β-actin mRNA in PHH during de novo infection study; format: cell-based, human; settings: 11 days, highest concentration tested 30 μM
Method: Cryopreserved PHH (Life Technologies) were seeded at 40,000 cells/well 1 day before infection. The HBV inoculum, concentrated from the supernatants of HepG2.2.15 cells, was prepared at 200 genome equivalents/cell in PHH medium (DMEM containing 10% FBS and a supplement cocktail containing HEPES, L-proline, insulin epidermal growth factor, dexamethasone, and ascorbic acid-2-phosphate, as previously described) with 2% DMSO and 4% polyethylene glycol (PEG) 8000 (Sigma). Compounds were serially diluted in DMSO at 50-fold strength and added to PHH medium containing the HBV inoculum, prior to infecting the PHH. After overnight incubation, the infection mixtures were removed and the cells were replenished with PHH medium containing freshly diluted compounds. On day 5 and day 8 postinfection, the media containing the compounds were removed and the cells were replenished with PHH medium containing freshly diluted compounds. […] HBV DNA, HBsAg, and HBeAg were determined from the supernatants of infected PHH using bDNA assays (Affymetrix) and HBsAg or HBeAg chemiluminescence immunoassay kits (Autobio), as recommended by the manufacturers. Intracellular total HBV RNA mRNA and host mRNA levels were monitored by using the QuantiGene assays (Affymetrix) and probe sets that hybridized to the X region, which is common to all HBV transcripts, and the host β-actin mRNA, respectively.

HBV GT H = assay: Transient-transfection antiviral study in HepG2 cells, GT H; format: cell-based; settings: Hepatitis B virus, HepG2, 72 h, read-out: EC50 (mean), HBV GT H
Method: Cells were cotransfected with the HBV plasmids (100 ng/well) and a Gaussia expression plasmid (10 ng/well) (Thermo Scientific) using the Lipofectamine LTX Plus transfection reagent (Life Technologies). Transfection mixtures were removed after overnight incubation, and cells were treated with serially diluted NVR 3-778 at a final dimethyl sulfoxide (DMSO) concentration of 0.5%. After 3 days of incubation with the compound, the supernatants were collected and secreted Gaussia luciferase was measured using a Gaussia Flash luciferase assay kit (Thermo Scientific). […] Samples were diluted into lysis buffer (Affymetrix) containing 2.5 µg proteinase K (Affymetrix) at 50°C for 40 min. Intracellular encapsidated HBV DNA was denatured for 30 min at 25°C in 0.2 M NaOH (Sigma) and incubated with HBV DNA probes designed to hybridize to the minus-strand HBV DNA (Affymetrix). The denatured DNA was subsequently detected using a QuantiGene assay kit, according to the branched DNA (bDNA) assay recommended by the manufacturer (Affymetrix).

HBV rtA181V variant = assay: microbe, parasite or virus in culture; format: cell-based, hepatitis B virus; settings: ratio of mean EC50 against variant over WT HBV, HepG2 cells
Source text: (§1) Plasmids containing HBV DNA with rtN236T, rtA181V, rtA181V/N236T, and rtL180M/M204V/N236T were generated using the GT B WT or rtL180M/M204V DNA-containing plasmids and site-directed mutagenesis (Agilent Technologies). A panel of nine different HBV core variants (cW102G, cW102R, cI105V, cI105L, cI105T, cT109S, cT109M, cT109I, and cY118F) was generated, also using the GT B WT DNA-containing plasmid and site-directed mutagenesis. The full-length genome from all plasmids was sequenced to confirm that only the intended nucleotide change(s) was present. Finally, HBV sequences from genotypes A (GenBank accession number AF305422), C (GenBank accession number AB033550), D (GenBank accession number V01460), E (GenBank accession number AB274971), F (GenBank accession number AB036912), G (GenBank accession number AF160501), and H (GenBank accession number AB375159) were gene synthesized as 1.1 times the genome length together with part of the CMV promoter at the 5′ end. The gene-synthesized piece was validated by sequencing and subcloned into the pCMV-HBV plasmid using the restriction sites SalI and NdeI (Genewiz, USA).
(§2) HepG2 cells were seeded in 96-well plates at a density of 20,000 cells/well and allowed to attach overnight at 37°C in 5% CO2. Cells were cotransfected with the HBV plasmids (100 ng/well) and a Gaussia expression plasmid (10 ng/well) (Thermo Scientific) using the Lipofectamine LTX Plus transfection reagent (Life Technologies). Transfection mixtures were removed after overnight incubation, and cells were treated with serially diluted NVR 3-778 at a final dimethyl sulfoxide (DMSO) concentration of 0.5%. After 3 days of incubation with the compound, the supernatants were collected and secreted Gaussia luciferase was measured using a Gaussia Flash luciferase assay kit (Thermo Scientific). Cells were lysed with 0.33% NP-40 (Thermo Scientific), and the cytoplasmic fractions were treated with 2 units of Turbo DNase (Invitrogen) and 10 units of S7 nuclease (Roche) in CutSmart buffer (New England Biolabs) containing 25 µM CaCl2 (G-Biosciences) at 37°C for 60 min, followed by inactivation of the enzymes at 75°C for 15 min. Samples were diluted into lysis buffer (Affymetrix) containing 2.5 µg proteinase K (Affymetrix) at 50°C for 40 min. Intracellular encapsidated HBV DNA was denatured for 30 min at 25°C in 0.2 M NaOH (Sigma) and incubated with HBV DNA probes designed to hybridize to the minus-strand HBV DNA (Affymetrix). The denatured DNA was subsequently detected using a QuantiGene assay kit, according to the branched DNA (bDNA) assay recommended by the manufacturer (Affymetrix).
(§3) To determine percent inhibition, the mean background signal from wells containing only culture medium was subtracted from the signal for all other samples, and percent inhibition at each compound concentration was calculated by normalization to the signals for HepG2.2.15 cells treated with 0.5% DMSO. […] Both CalcuSyn and MacSynergy II (Ann Arbor, MI) software were used to evaluate the effect of compound combinations ([27]). After data analysis at the 95% confidence level, values of synergy or antagonism of <25 µM^2% were defined as insignificant, those between 25 and 50 µM^2% were defined as minor, those between 50 and 100 µM^2% were defined as moderate, and those of >100 µM^2% were defined as strong.

[1] = test system: HBV rtA181V/N236T variant; format: cell-based, hepatitis B virus; settings: ratio of mean EC50 against variant over WT HBV, HepG2 cells
Source text: as §1, §2, §3

HBV rtN236T variant = format: cell-based, hepatitis B virus; settings: ratio of mean EC50 against variant over WT HBV, HepG2 cells
Source text: as §1, §2, §3

[2] = Hepatocyte stability, mouse hepatocytes; format: in vitro ADME; settings: 120 min incubation
Method: Following in vitro incubation for 120 min with human, mouse, or dog hepatocytes, >85% of the NVR 3-778 remained intact. […] The fewest number of metabolites was found following incubation with human hepatocytes, where 92% of the NVR 3-778 remained after a 120-min incubation.

Row | Structure (SMILES) | CC50 (EC50), β-actin mRNA (β-actin mRNA) | CC90 (EC90 column), β-actin mRNA (β-actin mRNA) | EC50 (HBV GT H) | EC50 fold change, rtA181V (HBV rtA181V variant) | EC50 fold change, rtA181V/N236T [1] | EC50 fold change, rtN236T (HBV rtN236T variant) | NVR 3-778 remaining intact [2]
1 | Nc1ccn([C@@H]2CS[C@H](CO)O2)c(=O)n1 [LMV, lamivudine, reference compound] | >30 µM | >30 µM |  |  |  |  | 
2 | O=C(Nc1cc(F)c(F)c(F)c1)c1ccc(F)c(S(=O)(=O)N2CCC(O)CC2)c1 [NVR 3-778] |  |  | 0.58 µM | 0.82 ± 0.19^d fold | 0.85 ± 0.26^d fold | 0.85 ± 0.40^d fold | > 85%
